# Legend:
# [1] = test system: Trastuzumab-resistant BT474-R breast cancer cells; assay: Clonogenic (colony) survival, BT474-R; format: cell-based, human; conditions: 6 hour incubation at 37° C.; pH 7.4 or 6.0; monolayers
# Description: (§1) Cold conditions of liposomes and the antibody are indicated at zero radioactivity concentration. Error bars correspond to standard deviations of repeated measurements (4-6 samples per radioactivity concentration);
# (§2) After incubation for 6 hours of cell monolayers with varying concentrations of radioactivity, the cells were washed and were plated in dishes to grow until formation of colonies, as described in detail in Prasad et al., 2021.
# [2] = test system: Trastuzumab-sensitive BT474 breast cancer cells; assay: Clonogenic (colony) survival, BT474; format: cell-based, human; conditions: 6 hour incubation at 37° C.; pH 7.4 or 6.0; monolayers
# Description: as §1, §2
compound,measurement,setting,value
O=C([O-])CN1CCN(CC(=O)[O-])CCN(CC(=O)[O-])CCN(CC(=O)[O-])CC1.[225Ac+3] [free [^225Ac]Ac-DOTA],colony survival response,[1],same sensitivity
same,colony survival response,[2],same sensitivity

# Reference: patent US20230241256A1, “NON-INTUITIVE COMBINATION OF DRUG DELIVERY CARRIERS OF THE SAME DRUG FOR SYNERGISTIC GROWTH DELAY OF SOLID TUMORS” (The Johns Hopkins University, priority 2020, published 2023)
